Assay results reported in ChEMBL document CHEMBL1147587, “Synthesis of 7'-[123I]iodo-D-luciferin for in vivo studies of firefly luciferase gene expression” (Bioorg Med Chem Lett, 2004).

Tested on: Lampyridae
Description: Michaelis-Menten constant for binding affinity towards firefly luciferase

Km: 4.28 µM
SMILES: O=C(O)[C@H]1CSC(c2nc3ccc(O)c(I)c3s2)=N1
